# In article PMC10210183 (ACS Omega, 2023):
# Biological target: eqBChE (Equus caballus, UniProt P81908)
# Test: biochemical
# Settings: read-out: BChE % Inhibition ± SD @ 1 μM, eqBChE, 1 μM
# Sequence of eqBChE (P81908 whole entry): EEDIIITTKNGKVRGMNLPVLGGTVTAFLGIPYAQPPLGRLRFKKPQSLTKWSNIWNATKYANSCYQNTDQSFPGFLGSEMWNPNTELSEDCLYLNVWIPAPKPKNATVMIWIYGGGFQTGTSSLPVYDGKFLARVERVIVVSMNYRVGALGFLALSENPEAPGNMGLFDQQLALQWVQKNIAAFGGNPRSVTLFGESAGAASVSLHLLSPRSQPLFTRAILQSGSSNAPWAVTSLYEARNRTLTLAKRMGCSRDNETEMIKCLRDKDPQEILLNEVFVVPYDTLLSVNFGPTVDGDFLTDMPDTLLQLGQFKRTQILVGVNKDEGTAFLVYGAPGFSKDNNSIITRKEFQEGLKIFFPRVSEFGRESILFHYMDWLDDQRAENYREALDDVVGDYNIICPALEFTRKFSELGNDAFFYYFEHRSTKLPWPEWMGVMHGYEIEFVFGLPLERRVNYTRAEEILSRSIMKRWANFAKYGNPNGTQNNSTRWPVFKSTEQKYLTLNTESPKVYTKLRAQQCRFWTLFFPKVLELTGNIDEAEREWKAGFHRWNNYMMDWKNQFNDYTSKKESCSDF
row,Structure (SMILES),inhibition at 1 µM
1,"COc1cc(/C=C/c2cc[n+](Cc3ccccc3)cc2)cc(OC)c1 [Compound 7a, (E)-1-Benzyl-4-(3,5-dimethoxystyryl)pyridin-1-ium bromide]",20%
2,"COc1ccc2cc(/C=C/c3cc[n+](Cc4ccccc4)cc3)ccc2c1 [Compound 7aq, (E)-1-Benzyl-4-(2-(6-methoxynaphthalen-2-yl)vinyl)pyridin-1-ium bromide]",60%
